Source: US12643905B2, “Spiropyrrolidine derived antiviral agents” (priority 2021, dated 2026)

Experiments:
[1] = target: SARS-CoV-2 3CL-protease (Severe acute respiratory syndrome coronavirus 2, UniProt P0DTD1); experiment: SARS-CoV-2 3C-like (3CL) protease fluorescence assay (FRET); format: biochemical; settings: recombinant SARS-CoV-2 3CL-protease 10 nM, 30 min preincubation, run in duplicate; read-out: FRET IC50
[2] = test system: 229E human corona virus (hCoV); experiment: 229E live virus assay (CPE, ATPlite readout in MRC-5 cells); format: cell-based, hCoV-229E; settings: Human coronavirus 229E, MRC5, 144 h, MOI 0.05, 6 days at 34° C., run in duplicate

Structure (SMILES)	IC50 [1] [µM]	EC50 [2] [µM]
[2H]C([2H])([2H])N(C(=O)C(=O)Nc1c(C(F)(F)F)cccc1C(F)(F)F)[C@@H](CC1CC1)C(=O)N1C[C@]2(C[C@H]1C#N)C(=O)Nc1ccccc12 [Example 193]	< 0.1	< 0.1
CC(C)C[C@H]1C(=O)N2C[C@]3(C[C@H]2C#N)C(=O)Nc2ccc(cc23)CCCCNC(=O)C(=O)N1C [Example 211]	0.1 to 1	0.1 to 1
CC(C)C[C@H]1C(=O)N2C[C@]3(C[C@H]2C#N)C(=O)Nc2ccc(cc23)CCCCN(Cc2ccccc2)C(=O)C(=O)N1C [Example 212]	0.1 to 1	0.1 to 1
CC(C)C[C@H]1C(=O)N2C[C@]3(C[C@H]2C#N)C(=O)Nc2ccc(cc23)CCCCCNC(=O)C(=O)N1C [Example 213]	0.1 to 1	0.1 to 1
CC(C)C[C@H]1C(=O)N2C[C@]3(C[C@H]2C#N)C(=O)Nc2ccc(cc23)/C=C\CCNC(=O)C(=O)N1C [Example 214]	0.1 to 1	0.1 to 1
